According to patent US20090018019A1, “INCREASING PATHOGEN DEFENCE IN PLANTS” (priority 2005, published 2009):

Columns and labels:
Experiment in all cases: DNA chip expression analysis of barley leaves after soil treatment
Type in all cases: in vivo
Conditions in all cases: 10 mg per plant to soil
[1] = tested on: Contig4405_x_at PATHOGENESIS-RELATED PROTEIN PR-10A
Procedure: (§1) Barley seeds (of the Baroness variety) were sown in pots containing soil about 2 cm deep (1250 g of sandy loam/per pot; the soil moisture content was adjusted to 70% of the maximum water-holding capacity) and cultivated in a climatized chamber under specified light, moisture and temperature conditions (15 h white light, 70% atmospheric humidity, 23-19° C. day/night).
(§2) 14 days after the emergence of the barley plants 10 mg of imidacloprid per plant, dissolved in 100 ml water, were applied by means of a pipette to the soil around the base of the shoot. The same volume of water without any active compound was applied to the control pots. After the soil treatment the plants were no longer watered. At various times after application (0.25; 1; 6; 8; 11; 13; 15; 16 and 17 days) the leaves were harvested, quick-frozen in liquid nitrogen and stored at −80° C. until further treatment.
(§3) The labelled RNA probes for the DNA chip hybridization were produced according to the protocols (Expression Analysis, Technical Manual) of the Affymetrix company (Affymetrix Inc., 3380 Central Expressway, Santa Clara, Calif., USA). Whole RNA was first of all isolated from in each case 500 mg of the harvested leaves. 10 μg portions of whole RNA were used for the first and second strand cDNA synthesis. The cDNA was amplified with T7 polymerase and simultaneously labelled with biotin-UTP. 20 μg portions of this biotinylated cDNA were used for the hybridization of the barley genome array (Barleyl Gene Chip, Item no: 511012) from Affymetrix. This DNA microarray contains DNA sequences of 22840 genes composed of a total of 400000 EST (Expressed Sequence Tag) sequences. Then the DNA microarrays were washed in the Affymetrix Fluidics Station, stained with streptavidin/phycoerythrin (Molecular Probes, P/N S-866) and scanned with the Affymetrix Gene Chip Scanner 3000. The fluorescence data obtained were analyzed with the Microarray Suite 5 software from Affymetrix and the Expressionist Pro software from the GeneData company. After a quality check, all of the DNA chip analyses were stored in a database. Since the Affymetrix Gene Chip System is based on measuring the absolute expression values of the genes contained in the chip, the expression values of the biological replicates of treated and non-treated plants were averaged after normalization (median calculation). With the aid of the statistical ANOVA method, those genes were identified whose expression was increased in the plants treated with imidacloprid but remained relatively constant in the untreated controls. The assembly of gene groups from specific metabolic pathways, signal transduction chains or functions was carried out by a keyword search through the gene annotations supplied by Affymetrix and by linking the genes to their corresponding Gene Ontology Annotations (Gene Ontology Consortium).

[2] = tested on: Contig2209_at PATHOGENESIS RELATED PROTEIN (HV-1A)
Procedure: as §1, §2, §3

[3] = tested on: Contig2214_s_at PATHOGENESIS RELATED PROTEIN (HV-1A)
Procedure: as §1, §2, §3

[4] = tested on: Contig2211_at PATHOGENESIS-RELATED PROTEIN PRECURSOR
Procedure: as §1, §2, §3

[5] = tested on: Contig2550_x_at PATHOGENESIS-RELATED PROTEIN 4
Procedure: as §1, §2, §3

In the case of `O=[N+]([O-])/N=C1\NCCN1Cc1ccc(Cl)nc1` [imidacloprid], the “Induction factor = Expression (treated)/Expression (untreated)” value (shortened to “Induction factor = Expression”) ([1]; 0.25 d) was 1.1, the “Median of the raw expression data, treated” value (“Median” for short) ([1]; 0.25 days) was 60.34 and the “Induction factor = Expression” value ([1]; 1 d) was 0.9. The “Median” value ([1]; 1 day) was 55.96, the “Induction factor = Expression” value ([1]; 6 d) was 2.1 and the “Median” value ([1]; 6 days) was 146.82. For the same compound, the “Induction factor = Expression” value ([1]; 8 d) was 2.8, the “Median” value ([1]; 8 days) was 181.30 and the “Induction factor = Expression” value ([1]; 11 d) was 2.2. For the same compound, the “Median” value ([1]; 11 days) was 125.79, the “Induction factor = Expression” value ([1]; 13 d) was 1.3 and the “Median” value ([1]; 13 days) was 55.42. The “Induction factor = Expression” value ([1]; 15 d) was 1.1, the “Median” value ([1]; 15 days) was 57.66 and the “Induction factor = Expression” value ([1]; 16 d) was 1.4. The “Median” value ([1]; 16 days) was 88.69, the “Induction factor = Expression” value ([1]; 17 d) was 1.5 and the “Median” value ([1]; 17 days) was 87.06. The “Induction factor = Expression” value ([2]; 0.25 d) was 0.8, the “Median” value ([2]; 0.25 days) was 187.60 and the “Induction factor = Expression” value ([2]; 1 d) was 0.6. The “Median” value ([2]; 1 day) was 153.35, the “Induction factor = Expression” value ([2]; 6 d) was 9.8 and the “Median” value ([2]; 6 days) was 4773.49. For the same compound, the “Induction factor = Expression” value ([2]; 8 d) was 11.5, the “Median” value ([2]; 8 days) was 8173.99 and the “Induction factor = Expression” value ([2]; 11 d) was 12.1. The “Median” value ([2]; 11 days) was 8587.82, the “Induction factor = Expression” value ([2]; 13 d) was 6.0 and the “Median” value ([2]; 13 days) was 1723.94. For the same compound, the “Induction factor = Expression” value ([2]; 15 d) was 2.7, the “Median” value ([2]; 15 days) was 1689.29 and the “Induction factor = Expression” value ([2]; 16 d) was 2.5. For the same compound, the “Median” value ([2]; 16 days) was 2069.04, the “Induction factor = Expression” value ([2]; 17 d) was 0.6 and the “Median” value ([2]; 17 days) was 888.58. For the same compound, the “Induction factor = Expression” value ([3]; 0.25 d) was 0.9, the “Median” value ([3]; 0.25 days) was 86.29 and the “Induction factor = Expression” value ([3]; 1 d) was 0.5. For the same compound, the “Median” value ([3]; 1 day) was 44.68, the “Induction factor = Expression” value ([3]; 6 d) was 9.8 and the “Median” value ([3]; 6 days) was 3322.93. The “Induction factor = Expression” value ([3]; 8 d) was 11.1, the “Median” value ([3]; 8 days) was 4807.28 and the “Induction factor = Expression” value ([3]; 11 d) was 9.3. For the same compound, the “Median” value ([3]; 11 days) was 4463.75, the “Induction factor = Expression” value ([3]; 13 d) was 5.1 and the “Median” value ([3]; 13 days) was 636.20. For the same compound, the “Induction factor = Expression” value ([3]; 15 d) was 3.0, the “Median” value ([3]; 15 days) was 808.24 and the “Induction factor = Expression” value ([3]; 16 d) was 2.4. The “Median” value ([3]; 16 days) was 1241.52, the “Induction factor = Expression” value ([3]; 17 d) was 0.6 and the “Median” value ([3]; 17 days) was 472.04. For the same compound, the “Induction factor = Expression” value ([4]; 0.25 d) was 1.0, the “Median” value ([4]; 0.25 days) was 223.31 and the “Induction factor = Expression” value ([4]; 1 d) was 1.0. The “Median” value ([4]; 1 day) was 206.49, the “Induction factor = Expression” value ([4]; 6 d) was 3.1 and the “Median” value ([4]; 6 days) was 824.50. For the same compound, the “Induction factor = Expression” value ([4]; 8 d) was 3.7, the “Median” value ([4]; 8 days) was 928.65 and the “Induction factor = Expression” value ([4]; 11 d) was 3.0. For the same compound, the “Median” value ([4]; 11 days) was 868.02, the “Induction factor = Expression” value ([4]; 13 d) was 1.8 and the “Median” value ([4]; 13 days) was 296.99. For the same compound, the “Induction factor = Expression” value ([4]; 15 d) was 1.1, the “Median” value ([4]; 15 days) was 252.25 and the “Induction factor = Expression” value ([4]; 16 d) was 1.5. The “Median” value ([4]; 16 days) was 340.64, the “Induction factor = Expression” value ([4]; 17 d) was 0.8 and the “Median” value ([4]; 17 days) was 219.24. For the same compound, the “Induction factor = Expression” value ([5]; 0.25 d) was 0.8, the “Median” value ([5]; 0.25 days) was 68.63 and the “Induction factor = Expression” value ([5]; 1 d) was 0.7. The “Median” value ([5]; 1 day) was 54.66, the “Induction factor = Expression” value ([5]; 6 d) was 5.8 and the “Median” value ([5]; 6 days) was 716.14. For the same compound, the “Induction factor = Expression” value ([5]; 8 d) was 7.4, the “Median” value ([5]; 8 days) was 1121.61 and the “Induction factor = Expression” value ([5]; 11 d) was 6.1. For the same compound, the “Median” value ([5]; 11 days) was 771.21, the “Induction factor = Expression” value ([5]; 13 d) was 3.1 and the “Median” value ([5]; 13 days) was 150.42. The “Induction factor = Expression” value ([5]; 15 d) was 1.4, the “Median” value ([5]; 15 days) was 162.60 and the “Induction factor = Expression” value ([5]; 16 d) was 2.7. The “Median” value ([5]; 16 days) was 389.62, the “Induction factor = Expression” value ([5]; 17 d) was 0.9 and the “Median” value ([5]; 17 days) was 174.42.
